pIC50: −log10 of the molar value.
Each molecule was assayed against GABA-A receptor; anion channel (Homo sapiens) (UniProt P14867+P47870+P18507+P28472+P48169+Q99928+Q9UN88+P34903+O00591+O14764+Q8N1C3+P18505+P78334+P47869+P31644+Q16445) (assay: Inhibition of [3H]flunitrazapam binding to GABA-A central benzodiazepine receptor of guinea pig cerebellum at 10 uM). Conditions: Cavia porcellus, target entry is the homologue from another species.
Format: tissue-based

SMILES	inhibition [%]
CN1CCC[C@@H]1Cc1c[nH]c2ccc(-n3ccc4cc(C#N)ccc43)cc12	37
CN1CCC(c2c[nH]c3ccc(-n4ccc5cc(C#N)ccc54)cc23)C1 (centres undefined)	34

Each molecule was assayed against GABA-A receptor; anion channel (assay: Binding affinity to the benzodiazepine receptor assayed using 0.5 nM [3H]flunitrazapam as radioligand in guinea pig cerebellum). Conditions: not given.
Format: tissue-based, Cavia porcellus

SMILES	pIC50
CN1CCC[C@@H]1Cc1c[nH]c2ccc(-n3cnc4ccccc43)cc12	7.80
CN1CCC[C@@H]1Cc1c[nH]c2ccc(-n3cnc4cccnc43)cc12	7.57
O=Cc1c[nH]c2ccc(-n3cnc4cccnc43)cc12	6.68
CN1CCC[C@@H]1Cc1c[nH]c2ccc(-n3cnc4cc(NC(Cc5c[nH]c6ccccc56)C(=O)NC(=O)OCc5ccccc5)ccc43)cc12 (some centres undefined)	7.48
COCCN1CCC[C@@H]1Cc1c[nH]c2ccc(-n3cnc4cc(NC(=O)Nc5ccccc5)ccc43)cc12	7.77
N#Cc1ccc2c(c1)ncn2-c1ccc2[nH]cc(C3CCNCC3)c2c1	9.62
N#Cc1ccc2c(c1)ncn2-c1ccc2[nH]ccc2c1	7.74
c1cnc2c(c1)ncn2-c1ccc2[nH]cc(C[C@H]3CCCN3)c2c1	6.96
CN1CCC[C@@H]1Cc1c[nH]c2ccc(-n3cnc4cc(Cl)ccc43)cc12	8.96
Cc1ccnc2c1ncn2-c1ccc2[nH]cc(C[C@H]3CCCN3C)c2c1	7.92
Cc1ccc2c(c1)ncn2-c1ccc2[nH]cc(C[C@H]3CCCN3C)c2c1	9.80
Cc1ccc2c(c1)ncn2-c1ccc2[nH]cc(C3=CCN(C(=O)OC(C)(C)C)CC3)c2c1	7.51
N#Cc1ccc2c(c1)ncn2-c1ccc2[nH]cc(C=O)c2c1	7.72
CN1CCC[C@@H]1Cc1c[nH]c2ccc(-n3ccc4cc(C#N)ccc43)cc12	< 6.00
CN1CCC[C@@H]1Cc1c[nH]c2ccc(-n3cnc4cc(C#N)cnc43)cc12	8.01
N#Cc1ccc2c(c1)ncn2-c1ccc2[nH]cc(C3=CCNCC3)c2c1	9.34
Cc1ccc2c(c1)ncn2-c1ccc2[nH]ccc2c1	9.10
CN1CCC[C@@H]1Cc1c[nH]c2ccc(Nc3ncccc3[N+](=O)[O-])cc12	5.02
COCCN1CCC(c2c[nH]c3ccc(-n4cnc5cc(C#N)ccc54)cc23)CC1	9.22
Cc1ccc2c(c1)ncn2-c1ccc2[nH]cc(C3CCNCC3)c2c1	9.31
CN1CCC(c2c[nH]c3ccc(-n4cnc5cc(C#N)ccc54)cc23)C1 (centres undefined)	8.66
CN1CCC[C@@H]1Cc1c[nH]c2ccc(-n3cnc4cc(C#N)ccc43)cc12	8.55
CN1CCC[C@H]1Cc1c[nH]c2ccc(-n3cnc4cc(C#N)ccc43)cc12	8.74
CN1CCC[C@@H]1Cc1c[nH]c2ccc(-n3cnc4cc(CN)ccc43)cc12	7.89
COCCN1CCC[C@@H]1Cc1c[nH]c2ccc(-n3cnc4cc(CN)ccc43)cc12	7.26
COCCN1CCC[C@@H]1Cc1c[nH]c2ccc(-n3cnc4cc(C#N)ccc43)cc12	7.62

These molecules were tested against GABA-A receptor; anion channel (assay: Displacement of [3H]flunitrazapam from GABA-A central benzodiazepine receptor of guinea pig cerebellum). Conditions: not given.
Format: tissue-based, Cavia porcellus

SMILES	pIC50
N#Cc1ccc2c(c1)ncn2-c1ccc2[nH]cc(C[C@H]3CCCN3CC3CC3)c2c1	7.57

— ChEMBL document CHEMBL1128050, “The discovery of a novel and potent benzodiazepine receptor pharmacophore” (Bioorg Med Chem Lett, 1995)
